Results taken from patent publication US5340929A, “Trisazo dye and dye composition containing the same” (Orient Chemical Industries, Ltd., priority 1992, dated 1994).
Read-outs that look alike come from different tables or passages of the source.

Columns and labels:
[1] = Hue of dye / writing; assay type: physicochemical
[2] = system: strains TA98; assay type: cell-based
Protocol: Further, the trisazo dye of the present invention is a nontoxic trisazo dye which gives negative results in a back mutation test using an organism, which is generally known as a test method for evaluating toxicity, i.e. AMES test (mutation test).
Evaluation method of Ames test
Regarding various specimen solutions respectively containing a trisazo dyes obtained in Examples 1 to 8 of the present invention and dyes of Comparative Examples 1 to 3, the number of mutant colonies was determined using strains TA98. 2. When the ratio is less than 2, it is "negative" and, when the ratio is more than 2, it is "positive", and the results are shown in Table. 1.

[3] = Water resistance of writing (drawdown paper dipped in tap water, reflection density); assay type: physicochemical; conditions: drawndown paper, 3% dye solution, air-dried one day
Protocol: Light resistance: The resulting dye was dissolved in a 5% aqueous diethylene glycol solution to obtain a 3% dye solution. […] A degree of discoloration was compared with that before testing.
Water resistance: The drawndown paper was air-dried for one day and dipped in tap water.
A: Reflection density is more than 70% of that before testing.
B: Reflection density is 50 to 70% of that before testing.
C: Reflection density is less than 50% that before testing.

[4] = system: strains TA98; conditions: cited from earlier work

SMILES | Hue [1] | Ames test: ratio of the number of colonies to control ([2]; TA98, S-9 (+), 20 μg/plate) | Ames test: ratio of the number of colonies to control ([2]; TA98, S-9 (+), 78 μg/plate) | Ames test: ratio of the number of colonies to control ([2]; TA98, S-9 (+), 313 μg/plate) | Ames test: ratio of the number of colonies to control ([2]; TA98, S-9 (+), 1250 μg/plate) | Ames test: ratio of the number of colonies to control ([2]; TA98, S-9 (+), 5000 μg/plate) | Ames test: ratio of the number of colonies to control ([2]; TA98, S-9 (-), 20 μg/plate) | Ames test: ratio of the number of colonies to control ([2]; TA98, S-9 (-), 78 μg/plate) | Ames test: ratio of the number of colonies to control ([2]; TA98, S-9 (-), 313 μg/plate) | Ames test: ratio of the number of colonies to control ([2]; TA98, S-9 (-), 1250 μg/plate) | Ames test: ratio of the number of colonies to control ([2]; TA98, S-9 (-), 5000 μg/plate) | Writing evaluation: Water resistance [3] | Hue ([1]; listed as Comp. Example 3) | Ames test result ([4]; prior art statement, background) | Hue ([1]; listed as Comp. Example 2) | Ames test result [4]
CCCCN(c1ccc(N=Nc2ccc(N)cc2O)cc1)c1ccc(N=Nc2c(S(=O)(=O)O)cc3cc(S(=O)(=O)O)c(N=Nc4ccc(C(C)CC)cc4)c(O)c3c2N)cc1 (stereo not shown) [Ex. 6] | Reddish | 1.09 | 1.04 | 1.28 | 1.48 | 1.33 | 0.82 | 1.13 | 1.11 | 1.32 | 1.60 | A (Reflection density is more than 70% of that before testing.) | – | – | – | –
CCC(C)c1ccc(N=Nc2c(S(=O)(=O)O)cc3cc(S(=O)(=O)O)c(N=Nc4ccc(N(c5ccccc5)c5ccc(N=Nc6ccc(O)cc6O)cc5)cc4)c(N)c3c2O)cc1 (stereo not shown) [Ex. 3] | Reddish | 1.30 | 1.07 | 1.17 | 1.67 | 0.77 | 0.87 | 0.83 | 0.78 | 0.87 | 0.70 | A (Reflection density is more than 70% of that before testing.) | – | – | – | –
CN(c1ccc(N=Nc2ccc(N)cc2O)cc1)c1ccc(N=Nc2c(S(=O)(=O)O)cc3cc(S(=O)(=O)O)c(N=Nc4ccccc4)c(O)c3c2N)cc1 [Ex. 5] | Reddish | 1.60 | 1.56 | 1.44 | 1.72 | 1.20 | 1.00 | 0.78 | 0.87 | 1.39 | 1.65 | B (Reflection density is 50 to 70% of that before testing.) | – | – | – | –
CCCCCCN(c1ccc(N=Nc2ccc(N)cc2O)cc1)c1ccc(N=Nc2c(S(=O)(=O)O)cc3cc(S(=O)(=O)O)c(N=Nc4ccccc4C)c(O)c3c2N)cc1 [Ex. 7] | Reddish | 1.20 | 1.15 | 0.82 | 0.44 | 0.53 | 1.28 | 1.50 | 1.06 | 1.33 | 0.94 | A (Reflection density is more than 70% of that before testing.) | – | – | – | –
Nc1ccc(N=Nc2ccc(N(c3ccccc3)c3ccc(N=Nc4c(S(=O)(=O)O)cc5cc(S(=O)(=O)O)c(N=Nc6ccccc6)c(O)c5c4N)cc3)cc2)c(O)c1 [Ex. 1] | Reddish | 1.18 | 1.17 | 1.32 | 0.41 | 0.29 | 0.95 | 0.82 | 0.82 | 0.95 | 0.77 | A (Reflection density is more than 70% of that before testing.) | – | – | – | –
Cc1ccc(N(c2ccc(N=Nc3ccc(O)cc3O)cc2)c2ccc(N=Nc3c(S(=O)(=O)O)cc4cc(S(=O)(=O)O)c(N=Nc5ccccc5)c(O)c4c3N)cc2)cc1 [Ex. 2] | Reddish | 1.17 | 1.09 | 1.02 | 0.83 | 0.87 | 1.19 | 1.32 | 1.04 | 1.06 | 1.18 | B (Reflection density is 50 to 70% of that before testing.) | – | – | – | –
Cc1cc(-c2ccc(N=Nc3c(S(=O)(=O)[O-])cc4cc(S(=O)(=O)[O-])c(N=Nc5ccccc5)c(O)c4c3N)c(C)c2)ccc1N=Nc1ccc(N)cc1N.[Na+].[Na+] [compound 3, C.I. Direct Black 154, reference compound] | Greenish | 1.92 | 2.35 | 2.50 | 1.50 | 0.85 | 0.72 | 0.68 | 0.84 | 0.76 | 0.96 | B (Reflection density is 50 to 70% of that before testing.) | greenish black | false positive or positive | – | –
Nc1ccc(N=Nc2ccc(N=Nc3c(S(=O)(=O)[O-])cc4cc(S(=O)(=O)[O-])c(N=Nc5ccc(N=Nc6ccc(N)cc6N)cc5)c(O)c4c3N)cc2)c(N)c1.[Na+].[Na+] [compound 2, C.I. Direct Black 19, reference compound] | Yellowish | 8.33 | 24.2 | 75.0 | 52.8 | 4.00 | 0.92 | 0.88 | 1.48 | 2.24 | 2.84 | A (Reflection density is more than 70% of that before testing.) | – | – | yellowish black | false positive or positive
Nc1ccc(N=Nc2ccc(N(c3ccccc3)c3ccc(N=Nc4c(S(=O)(=O)O)cc5cc(S(=O)(=O)O)c(N=Nc6ccc(S(=O)(=O)O)cc6)c(O)c5c4N)cc3)cc2)c(O)c1 [Ex. 4] | Reddish | 1.23 | 1.22 | 1.21 | 1.51 | 1.17 | 1.06 | 1.02 | 1.05 | 0.99 | 1.02 | A (Reflection density is more than 70% of that before testing.) | – | – | – | –
CCCCCCCCN(c1ccc(N=Nc2ccc(N)cc2O)cc1)c1ccc(N=Nc2c(S(=O)(=O)O)cc3cc(S(=O)(=O)O)c(N=Nc4ccc(S(=O)(=O)O)cc4)c(O)c3c2N)cc1 [Ex. 8] | Reddish | 1.25 | 1.22 | 1.16 | 0.88 | 0.91 | 0.98 | 0.94 | 0.91 | 0.93 | 1.02 | B (Reflection density is 50 to 70% of that before testing.) | – | – | – | –
